# Active and inactive are the calls of the source. The calls are words filed in the database; no cut-off is given here.
# Tests used:
# CCRF-CEM [1] = assay: Cytoprotective activity against DEM-induced ROS production in human CEM cells assessed as cells with intact mitochondrial potential at 2.5 uM pretreated for 16 hrs prior DEM challenge measured after 120 mins by TMRM-based flow cytometry (reference value: 94%); format: functional
# CCRF-CEM [2] = assay: Cytoprotective activity against DEM-induced ROS production in human CEM cells assessed as cells with intact mitochondrial potential at 1 uM pretreated for 16 hrs prior DEM challenge measured after 120 mins by TMRM-based flow cytometry (reference value: 94%); format: functional
# CCRF-CEM [3] = assay: Cytoprotective activity against DEM-induced ROS production in human CEM cells assessed as reduction in lipid peroxidation at 2.5 to 5 uM treated prior DEM challenge measured after 16 hrs by C11-BODIPY581/591-based flow cytometry relative to alpha-tocopherol; format: functional, cell-based
# CCRF-CEM [4] = assay: Cytoprotective activity against DEM-induced ROS production in human CEM cells assessed as prevention of loss of mitochondrial potential pretreated for 16 hrs prior DEM challenge measured after 120 mins by TMRM-based flow cytometry (reference value: 94%); format: functional, cell-based
# CCRF-CEM [5] = assay: Cytoprotective activity against DEM-induced ROS production in human CEM cells treated prior DEM challenge after 16 hrs by DCFH-DA-based flow cytometry relative to alpha-tocopherol; format: functional, cell-based
# CCRF-CEM [6] = assay: Cytoprotective activity against DEM-induced ROS production in human CEM cells at 1 to 5 uM pretreated for 16 hrs prior DEM challenge measured after 5.5 hrs by trypan blue exclusion method; format: functional, cell-based
Structure (SMILES),Activity (CCRF-CEM [1]),Activity (CCRF-CEM [2]),Activity (CCRF-CEM [3]),Activity (CCRF-CEM [4]),Activity (CCRF-CEM [5]),Activity (CCRF-CEM [6])
CCCCCc1nc2c(c(C)c1O)CCN2C.O=C(O)C(F)(F)F,63%,40%,inactive,Dose-dependent effect,inactive,Active
CCCCCCCCCCc1nc2c(c(C)c1OC(C)=O)CCN2C,82%,75%,Active,Dose-dependent effect,Dose-dependent effect,Active
CCCCCCCCCCc1nc2c(c(C)c1O)CCN2C.O=C(O)C(F)(F)F,84%,80%,Active,Dose-dependent effect,Dose-dependent effect,Active
Cc1c(C)c2c(c(C)c1O)CC[C@@](C)(CCC[C@H](C)CCC[C@H](C)CCCC(C)C)O2,–,–,Active,–,Active,Active
CCCCCCCCCCCCCCCCc1nc2c(c(C)c1OC(C)=O)CCN2C,65%,50%,Active,Dose-dependent effect,Active,Active
CCCCCCCCCCCCCCCCc1nc2c(c(C)c1O)CCN2C.O=C(O)C(F)(F)F,70%,46%,Active,Dose-dependent effect,Active,inactive
CCCCCc1nc2c(c(C)c1OC(C)=O)CCN2C,60%,30%,inactive,Dose-dependent effect,inactive,Active
